Results on 17 molecules are retold here after PubChem BioAssay (NCI).

Where “and” joins values, the source holds several entries; their conditions need not be identical. Equal entries are not always repeated.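 48-hour exposure; five concentrations; linearly interpolated endpoints. GI50 marks 50% less growth. TGI is the concentration that stops growth completely.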

Test systems include DMS 273 small cell lung; SK-OV-3 ovarian; SW-620 colon; SF-539 CNS; ACHN renal; OVCAR-3 ovarian; SNB-19 CNS; COLO 205 colon; SK-MEL-2 melanoma; HOP-92 NSCLC.
What all share (experiment): NCI anticancer screen, dose series, 48 h

`CC(O)C(NC(=O)C(CS)NC(=O)C(CO)NC(=O)C(CCCCN)NC(=O)C(Cc1c[nH]c2ccccc12)NC(=O)C(Cc1ccc(O)cc1)NC(=O)C(CS)NC(=O)C(N)Cc1ccccc1)C(N)=O` (stereo not drawn): the TGI is 49.4 µM in the experiment on DMS 273 small cell lung; > 25 µM with SK-OV-3 ovarian; > 25 µM in the experiment on SW-620 colon; > 25 µM and 68.9 µM with SF-539 CNS; > 25 µM and 44.5 µM with ACHN renal; > 25 µM and 50 µM in the experiment on OVCAR-3 ovarian. In addition, the TGI in the experiment with SNB-19 CNS is 63.4 µM; in the experiment with COLO 205 colon, > 25 µM and 66.2 µM; in the experiment with SK-MEL-2 melanoma, > 25 µM and 49.5 µM. Besides, the GI50 in the experiment with ACHN renal is 20.5 µM; with OVCAR-3 ovarian, 21.3 µM; with COLO 205 colon it was 20.7 µM; in the experiment on SK-MEL-2 melanoma, 22 µM.
As to `COC(=O)c1ccc(OCc2ccc3oc(=O)c(-c4ccccc4)nc3c2)cc1`, the TGI in the experiment on DMS 273 small cell lung, in the experiment with SW-620 colon, in the experiment with SF-539 CNS, in the experiment on ACHN renal, with OVCAR-3 ovarian and in the experiment on SNB-19 CNS was > 100 µM in each case. The TGI with COLO 205 colon and in the experiment on SK-MEL-2 melanoma was > 100 µM each time.
On to `Cn1cc(NC(=O)c2cc(NC(=O)CCCCCC(=O)Nc3cc(C(=O)Nc4cc(C(=O)NCCC(=N)N)n(C)c4)n(C)c3)cn2C)cc1C(=O)NCCC(=N)N`, for which the TGI in the experiment on DMS 273 small cell lung, in the experiment with HOP-92 NSCLC, with SK-OV-3 ovarian, in the experiment with SW-620 colon, with SF-539 CNS and in the experiment with ACHN renal was > 100 µM each time. In addition, the TGI in the experiment on OVCAR-3 ovarian, in the experiment on SNB-19 CNS and in the experiment with COLO 205 colon was > 100 µM each time.
As to `c1cncc(C2c3[nH]c4ccccc4c3CCN2CCN2CCCCC2)c1` (stereo not drawn), the TGI in the experiment with DMS 273 small cell lung, with HOP-92 NSCLC, in the experiment on SK-OV-3 ovarian, with SW-620 colon, in the experiment on SF-539 CNS and in the experiment on ACHN renal was > 100 µM throughout. In addition, the TGI in the experiment on OVCAR-3 ovarian and in the experiment with SNB-19 CNS was > 100 µM throughout.
For `c1cc2c(cnc3cscc32)s1`, the TGI in the experiment on DMS 273 small cell lung, with HOP-92 NSCLC, in the experiment with SW-620 colon, in the experiment with SF-539 CNS, in the experiment on ACHN renal and in the experiment with OVCAR-3 ovarian was > 100 µM each time. Also, the TGI in the experiment with SNB-19 CNS and in the experiment with SK-MEL-2 melanoma was > 100 µM each time.
Turning to `CCCN(CCC)c1c([N+](=O)[O-])cc(S(N)(=O)=O)cc1[N+](=O)[O-]`, the TGI came out at 33.8 µM in the experiment with DMS 273 small cell lung; 31.8 µM with SK-OV-3 ovarian; 36 µM in the experiment on SW-620 colon; 35.9 µM in the experiment on SF-539 CNS; 31.8 µM in the experiment on ACHN renal; 31.8 µM in the experiment on OVCAR-3 ovarian. The TGI in the experiment on SNB-19 CNS amounted to 41.3 µM; in the experiment with COLO 205 colon, 43.1 µM; in the experiment on SK-MEL-2 melanoma it was 30.5 µM.
For `OC1CCC(Oc2cccc3cnc(Nc4ccc5nc[nH]c5c4)nc23)CC1` (stereo not drawn), the GI50 is 0.467 µM in the experiment on HOP-92 NSCLC; 3.35 µM with SK-OV-3 ovarian; 0.407 µM in the experiment on SW-620 colon; 0.215 µM in the experiment with SF-539 CNS; 0.313 µM in the experiment on ACHN renal; 0.423 µM in the experiment with OVCAR-3 ovarian. Further, the GI50 in the experiment with SNB-19 CNS is 0.407 µM; in the experiment on COLO 205 colon, 0.21 µM; with SK-MEL-2 melanoma, 0.873 µM. The TGI with HOP-92 NSCLC was 29.4 µM; in the experiment on SK-OV-3 ovarian it was 47.8 µM; in the experiment on SW-620 colon, 16.5 µM; with SF-539 CNS, 0.708 µM; in the experiment with ACHN renal, > 100 µM; in the experiment with OVCAR-3 ovarian it was 19.4 µM. In addition, the TGI with SNB-19 CNS turned out to be 49.6 µM; in the experiment with COLO 205 colon, 0.886 µM; in the experiment on SK-MEL-2 melanoma, 2.93 µM.
Consider `CC1=C2N3C[C@@H](n4c(=O)n(C)c(=O)n43)C23CCC1n1c(=O)n(C)c(=O)n13`, for which the TGI with DMS 273 small cell lung is > 100 µM; with SW-620 colon, 54.8 µM; in the experiment on SF-539 CNS, > 100 µM; in the experiment with ACHN renal, > 100 µM; in the experiment on SNB-19 CNS, > 100 µM; in the experiment with COLO 205 colon it was > 100 µM.
Take `CC(C)(C)N=CN1CCC(C(c2ccccc2)c2ccccc2)CC1`: the TGI in the experiment with DMS 273 small cell lung, in the experiment with HOP-92 NSCLC, in the experiment with SW-620 colon, in the experiment on SF-539 CNS, with ACHN renal and in the experiment on OVCAR-3 ovarian was > 100 µM in each case. Moreover, the figures for the TGI with SNB-19 CNS, in the experiment on COLO 205 colon and in the experiment with SK-MEL-2 melanoma were > 100 µM, 34.2 µM and > 100 µM, respectively.
With `Nc1ncnc2c1ncn2C1OC(C(=O)O)C(O)C1O` (stereo not drawn), the TGI in the experiment on HOP-92 NSCLC, in the experiment with SK-OV-3 ovarian, in the experiment with SW-620 colon, in the experiment with SF-539 CNS, in the experiment with ACHN renal and with OVCAR-3 ovarian was > 100 µM throughout. Besides, the TGI in the experiment on SNB-19 CNS, in the experiment with COLO 205 colon and in the experiment with SK-MEL-2 melanoma was > 100 µM throughout.
On to `Cc1ccc2c(c1)sc(-c1ccc(N(C)C)cc1)[n+]2C`, for which the GI50 with HOP-92 NSCLC is 0.719 µM; in the experiment on SK-OV-3 ovarian, 2.04 µM; in the experiment with SW-620 colon it was 2.28 µM; in the experiment with SF-539 CNS, 2.56 µM; in the experiment on ACHN renal it was 5.89 µM; with OVCAR-3 ovarian it was 0.685 µM. The GI50 with SNB-19 CNS is 1.95 µM; in the experiment with COLO 205 colon, 0.368 µM; in the experiment on SK-MEL-2 melanoma, 4.25 µM. For the same molecule, the TGI in the experiment with HOP-92 NSCLC was 5.36 µM; in the experiment on SK-OV-3 ovarian, 7.91 µM; with SW-620 colon, > 66 µM; with SF-539 CNS, 14.1 µM; with ACHN renal, > 100 µM; in the experiment on OVCAR-3 ovarian it was 15 µM. The TGI in the experiment on SNB-19 CNS was 21 µM; with COLO 205 colon, 1.44 µM; in the experiment on SK-MEL-2 melanoma it was > 38 µM.
For `Cn1cnc([N+](=O)[O-])c1Sc1ncnc2nc[nH]c12`, the TGI in the experiment on HOP-92 NSCLC was > 100 µM; in the experiment on SK-OV-3 ovarian, 39.6 µM and > 100 µM; in the experiment with SW-620 colon, > 100 µM; in the experiment with SF-539 CNS, > 100 µM; in the experiment on ACHN renal, > 100 µM; with OVCAR-3 ovarian it was 75.9 µM and > 80.2 µM. The TGI with SNB-19 CNS was > 100 µM; with COLO 205 colon it was 65.1 µM and > 100 µM; in the experiment on SK-MEL-2 melanoma, > 100 µM. Further, the GI50 with SK-OV-3 ovarian is 0.471 µM and 0.867 µM; in the experiment with SW-620 colon, 18.8 µM and 32.1 µM; in the experiment on SF-539 CNS it was 4.81 µM and 3.26 µM; with ACHN renal, 38.1 µM and 41.7 µM; with OVCAR-3 ovarian, 2.92 µM and 3.23 µM; in the experiment with SNB-19 CNS, 61.4 µM and 84.4 µM. Besides, in the experiment with COLO 205 colon, the GI50 is 11.6 µM and 19.9 µM.
Regarding `O=[N+]([O-])/C=C\c1ccc2c(c1)OCO2`, the GI50 in the experiment on HOP-92 NSCLC was 12.5 µM; in the experiment with SK-OV-3 ovarian, 12.1 µM; in the experiment with SW-620 colon, 2.07 µM; with SF-539 CNS, 3.08 µM; in the experiment with ACHN renal, 4.21 µM; in the experiment on OVCAR-3 ovarian it was 4.1 µM. In addition, the GI50 with SNB-19 CNS was 13.1 µM; with COLO 205 colon, 3.71 µM; with SK-MEL-2 melanoma it was 2.2 µM. The TGI in the experiment with HOP-92 NSCLC amounted to 30.9 µM; with SK-OV-3 ovarian, 24.4 µM; with SW-620 colon it was 4.91 µM; with SF-539 CNS, 9.35 µM; in the experiment with ACHN renal, 16.2 µM; in the experiment with OVCAR-3 ovarian it was 15.2 µM. The TGI is 30.8 µM with SNB-19 CNS, 13.4 µM with COLO 205 colon and 4.99 µM in the experiment with SK-MEL-2 melanoma.
`CCC(=O)N1C/C(=C/c2ccc(OC)cc2)C(=O)/C(=C/c2ccc(OC)cc2)C1`: the GI50 in the experiment with HOP-92 NSCLC was 2.11 µM; in the experiment on SK-OV-3 ovarian, 4.61 µM; with SW-620 colon, 1.66 µM; with SF-539 CNS it was 1.62 µM; in the experiment with ACHN renal, 1.8 µM; in the experiment on OVCAR-3 ovarian, 1.82 µM. In addition, the GI50 with SNB-19 CNS is 2.93 µM; with COLO 205 colon, 1.99 µM; in the experiment on SK-MEL-2 melanoma, 2.53 µM. The TGI with HOP-92 NSCLC came to 7.77 µM; with SK-OV-3 ovarian it was 27.9 µM; in the experiment on SW-620 colon, 3.64 µM; with SF-539 CNS, 3.1 µM; in the experiment on ACHN renal it was 3.43 µM; in the experiment on OVCAR-3 ovarian, 3.73 µM. Also, the values for the TGI in the experiment with SNB-19 CNS, in the experiment on COLO 205 colon and in the experiment with SK-MEL-2 melanoma were 19.3 µM, 3.65 µM and 5.38 µM, respectively.
As to `Cc1ccc(S(=O)(=O)NCCN2c3nc4ccccc4cc3Sc3cc4ccccc4nc32)cc1`, the GI50 was 2.19 µM with HOP-92 NSCLC; 7.82 µM in the experiment on SK-OV-3 ovarian; > 100 µM in the experiment on SW-620 colon; 4.79 µM with SF-539 CNS; 8.42 µM with ACHN renal; > 26.8 µM with OVCAR-3 ovarian. Also, the GI50 is 10.5 µM with SNB-19 CNS, > 100 µM in the experiment on COLO 205 colon and > 37.4 µM with SK-MEL-2 melanoma. The TGI is 13.3 µM in the experiment on HOP-92 NSCLC; 54.2 µM in the experiment on SK-OV-3 ovarian; > 100 µM in the experiment with SW-620 colon; 20.5 µM in the experiment on SF-539 CNS; > 100 µM in the experiment on ACHN renal; > 100 µM with OVCAR-3 ovarian. In addition, the TGI with SNB-19 CNS was 67.7 µM; in the experiment with COLO 205 colon, > 100 µM; in the experiment with SK-MEL-2 melanoma, > 80.2 µM.
Regarding `C=CCN(N=O)C(=O)N(CCC)CCCC(NC(C)=O)C(=O)NCc1ccccc1` (stereo not drawn), the TGI in the experiment on DMS 273 small cell lung, in the experiment on SK-OV-3 ovarian, with SW-620 colon, in the experiment with SF-539 CNS, with ACHN renal and with OVCAR-3 ovarian was > 100 µM each time. The TGI in the experiment on SNB-19 CNS, with COLO 205 colon and with SK-MEL-2 melanoma was > 100 µM throughout.
On to `Cc1ccc(S(=O)(=O)ON/N=C2/C3OC3[C@@H]3CCCC[C@H]23)cc1` (stereo partly drawn), for which the TGI with DMS 273 small cell lung, with HOP-92 NSCLC, with SW-620 colon, in the experiment with SF-539 CNS, in the experiment on ACHN renal and in the experiment on OVCAR-3 ovarian was > 100 µM throughout. Also, the TGI with SNB-19 CNS, in the experiment on COLO 205 colon and in the experiment on SK-MEL-2 melanoma was > 100 µM in each case.
